# From patent US8980911B2, “Heterocyclic compounds as protein kinase inhibitors” (Daiichi Sankyo Company, Limited, priority 2011, dated 2015)
# What was measured:
# Format in all cases: biochemical
# [1] = target: T1, JAK3 (Homo sapiens, UniProt P52333); assay: In vitro enzyme assay (cell-free HTRF kinase assay), JAK3; conditions: catalytic domain, His-tag; ATP 3 μM, SRCtide 100 nM, reaction 30 min
# T1 construct: All enzymes only contain the catalytic domain; His (N); purchased Carna Bioscience, Inc; host or cells: baculovirus expression system
# T1 sequence (P52333 822-1111 limits assumed): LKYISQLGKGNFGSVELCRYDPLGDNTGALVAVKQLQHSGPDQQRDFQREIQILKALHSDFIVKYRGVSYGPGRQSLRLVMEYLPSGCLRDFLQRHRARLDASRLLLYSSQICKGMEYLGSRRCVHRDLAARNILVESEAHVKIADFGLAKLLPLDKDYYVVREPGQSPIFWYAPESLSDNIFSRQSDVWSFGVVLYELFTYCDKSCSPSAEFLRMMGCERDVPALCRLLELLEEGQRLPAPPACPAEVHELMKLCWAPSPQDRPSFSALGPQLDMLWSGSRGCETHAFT
# Experimental: (§1) Kinase buffer [50 mM HEPES (pH 7.5), 1 mM EGTA, 10 mM MgCl2, 2 mM DTT and 0.01% Tween-20) was prepared and dilutions of a compound of formula (I) and other reagents were subsequently made in it. Two times concentrated compound of formula (I) solution: A compound of formula (I) was diluted to 100-fold final concentration in DMSO, followed by 50-fold dilution with Kinase buffer (1% DMSO final concentration). Four times concentrated Substrate/ATP mix solution: Biotin-SRCtide and ATP were diluted to 4-fold final concentration in Kinase buffer. Biotin-SRCtide solution (purchased from Anaspec) was mixed with ATP solution (1:1). Four times concentrated Enzyme solution: JAK1 or JAK2 or JAK3 or TYK2 enzyme [Human baculo virus expressed JAK1, JAK2, JAK3 and TYK2 were purchased from Carna Bioscience, Inc. All enzymes only contain the catalytic domain. JAK1 (aa 850-1154) and TYK2 (aa 871-1187) are expressed with an N-terminally fused GST-tag, and JAK2 and JAK3 with an N-terminally fused His-tag] was diluted to 4-fold final concentration in Kinase buffer and always kept on ice. Detection buffer: LANCE detection buffer (10 times concentrated) was diluted 10-fold in H2O. Four times concentrated stop solution: EDTA was diluted to a concentration of 40 mM in detection buffer. Four times concentrated ULight/Eu-antibody (from Perkin Elmer) mix solution: ULight-Streptavidin was diluted to a concentration of 100 nM (25 ng/mL final concentrations) and Eu-anti-phospho-Tyrosine (PT66) (from Perkin Elmer) was diluted to a concentration of 8 nM (2 ng/mL final concentration) in detection buffer.
# (§2) Cell-free in vitro kinase assay was performed in 384 well plates. Two times concentrated compound solution (5 μL) was pipetted into a HTS 384SV Small Volume Plate. Four times concentrated Substrate/ATP mix (2.5 μL) solution was added along with 4 times concentrated Enzyme solution (2.5 μL). Plate was covered with TopSeal-A and incubated at room temperature for indicated time (Table 3). Four times concentrated Stop solution (5 μL, 10 mM final concentration) was added and incubated for 5 minutes at room temperature. Four times concentrated ULight/Eu-antibody mix solution (5 μL) was added and again plate was covered with TopSeal and incubated overnight at 4° C. TopSeal was removed and HTRF signal was measured at 615 nm and […] (excitation at 320 or 340 nm) on Tecan M1000 Multi mode plate reader. Ratio (665 nm/615 nm)×10^4 was calculated and IC50 values were deduced from Graph-pad prism 4.2.
# [2] = target: T2, JAK2 (Homo sapiens, UniProt O60674); assay: In vitro enzyme assay (cell-free HTRF kinase assay), JAK2; conditions: catalytic domain, His-tag; ATP 10 μM, SRCtide 25 nM, reaction 30 min
# T2 construct: All enzymes only contain the catalytic domain; His (N); purchased Carna Bioscience, Inc; host or cells: baculovirus expression system
# T2 sequence (O60674 849-1124 limits assumed): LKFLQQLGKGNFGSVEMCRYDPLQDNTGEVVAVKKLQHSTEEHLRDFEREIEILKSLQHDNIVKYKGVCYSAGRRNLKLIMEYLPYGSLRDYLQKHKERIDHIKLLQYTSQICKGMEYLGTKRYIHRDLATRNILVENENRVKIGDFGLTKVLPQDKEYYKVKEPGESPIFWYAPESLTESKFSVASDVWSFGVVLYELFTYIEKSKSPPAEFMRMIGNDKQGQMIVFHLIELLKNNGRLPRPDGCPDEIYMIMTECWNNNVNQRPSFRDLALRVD
# Experimental: as §1, §2
# [3] = target: T3, JAK1 (Homo sapiens, UniProt P23458); assay: In vitro enzyme assay (cell-free HTRF kinase assay), JAK1; conditions: catalytic domain aa 850-1154, GST-tag; ATP 60 μM, SRCtide 400 nM, reaction 120 min
# T3 construct: JAK1 (aa 850-1154) and TYK2 (aa 871-1187) are expressed with an N-terminally fused GST-tag; GST (N); purchased Carna Bioscience, Inc; host or cells: baculovirus expression system
# T3 sequence (P23458 850-1154): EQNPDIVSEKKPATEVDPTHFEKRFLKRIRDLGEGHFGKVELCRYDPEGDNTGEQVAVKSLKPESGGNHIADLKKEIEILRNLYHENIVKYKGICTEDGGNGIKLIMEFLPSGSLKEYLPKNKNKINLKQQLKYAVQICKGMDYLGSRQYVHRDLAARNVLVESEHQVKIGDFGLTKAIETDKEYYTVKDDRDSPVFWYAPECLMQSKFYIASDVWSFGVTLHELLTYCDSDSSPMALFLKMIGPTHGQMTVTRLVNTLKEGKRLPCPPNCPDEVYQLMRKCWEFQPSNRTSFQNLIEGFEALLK
# Experimental: as §1, §2
IC50 [1] [nM],IC50 [2] [nM],IC50 [3] [nM],Compound
< 1000,< 1000,< 1000,"CC(=O)Nc1nccc2c(C(=O)c3c(Cl)cc(C(=O)NCCN4CCCC4)cc3Cl)c[nH]c12 [Compound No. 44, 4-{[7-(Acetylamino)-1H-pyrrolo[2,3-c]pyridin-3-yl]carbonyl}-3,5-dichloro-N-[2-(pyrrolidin-1-yl)ethyl]benzamide]"
< 100,< 100,< 1000,"O=C(c1c(Cl)cc(-c2cncnc2)cc1Cl)c1c[nH]c2c(NC(=O)C3CC3)nccc12 [Compound No. 47, N-{3-[2,6-Dichloro-4-(pyrimidin-5-yl)benzoyl]-1H-pyrrolo[2,3-c]pyridin-7-yl}cyclopropanecarboxamide]"
< 50,< 100,< 500,"N#Cc1cc(F)c(C(=O)c2c[nH]c3c(NC(=O)C4CC4)nccc23)c(F)c1 [Compound No. 51, N-[3-(4-Cyano-2,6-difluorobenzoyl)-1H-pyrrolo[2,3-c]pyridin-7-yl]cyclopropanecarboxamide]"
< 500,< 500,< 500,"O=C(NC1CC1)c1cc(Cl)c(C(=O)c2c[nH]c3c(NC(=O)C4CC4)nccc23)c(Cl)c1 [Compound No. 54, 3,5-Dichloro-N-cyclopropyl-4-({7-[(cyclopropylcarbonyl)amino]-1H-pyrrolo[2,3-c]pyridin-3-yl}carbonyl)benzamide]"
< 500,< 500,< 500,"O=C(NCC1CC1)c1cc(Cl)c(C(=O)c2c[nH]c3c(NC(=O)C4CC4)nccc23)c(Cl)c1 [Compound No. 55, 3,5-Dichloro-4-({7-[(cyclopropylcarbonyl)amino]-1H-pyrrolo[2,3-c]pyridin-3-yl}carbonyl)-N-(cyclopropylmethyl)benzamide]"
< 500,< 500,< 500,"CCOCCCNC(=O)c1cc(Cl)c(C(=O)c2c[nH]c3c(NC(=O)C4CC4)nccc23)c(Cl)c1 [Compound No. 56, 3,5-Dichloro-4-({7-[(cyclopropylcarbonyl)amino]-1H-pyrrolo[2,3-c]pyridin-3-yl}carbonyl)-N-(3-ethoxypropyl)benzamide]"
< 1000,< 1000,< 1000,"O=C(c1c(Cl)cc(CO)cc1Cl)c1c[nH]c2c(NC(=O)C3CC3)nccc12 [Compound No. 58, N-{3-[2,6-Dichloro-4-(hydroxymethyl)benzoyl]-1H-pyrrolo[2,3-c]pyridin-7-yl}cyclopropanecarboxamide]"
< 500,< 500,< 500,"O=C(NCCF)c1cc(F)c(C(=O)c2c[nH]c3c(NC(=O)C4CC4)nccc23)c(F)c1 [Compound No. 59, 4-({7-[(Cyclopropylcarbonyl)amino]-1H-pyrrolo[2,3-c]pyridin-3-yl}carbonyl)-3,5-difluoro-N-(2-fluoroethyl)benzamide]"
< 500,< 1000,< 500,"CCNC(=O)c1cc(F)c(C(=O)c2c[nH]c3c(NC(=O)C4CC4)nccc23)c(F)c1 [Compound No. 60, 4-({7-[(Cyclopropylcarbonyl)amino]-1H-pyrrolo[2,3-c]pyridin-3-yl}carbonyl)-N-ethyl-3,5-difluorobenzamide]"
< 500,< 500,< 1000,"CNC(=O)c1cc(F)c(C(=O)c2c[nH]c3c(NC(=O)C4CC4)nccc23)c(F)c1 [Compound No. 61, 4-({7-[(Cyclopropylcarbonyl)amino]-1H-pyrrolo[2,3-c]pyridin-3-yl}carbonyl)-3,5-difluoro-N-methylbenzamide]"
< 500,< 500,< 1000,"O=C(NCCCO)c1cc(F)c(C(=O)c2c[nH]c3c(NC(=O)C4CC4)nccc23)c(F)c1 [Compound No. 62, 4-({7-[(Cyclopropylcarbonyl)amino]-1H-pyrrolo[2,3-c]pyridin-3-yl}carbonyl)-3,5-difluoro-N-(3-hydroxypropyl)benzamide]"
< 500,< 500,< 500,"CN(C)CCNC(=O)c1cc(F)c(C(=O)c2c[nH]c3c(NC(=O)C4CC4)nccc23)c(F)c1 [Compound No. 63, 4-({7-[(Cyclopropylcarbonyl)amino]-1H-pyrrolo[2,3-c]pyridin-3-yl}carbonyl)-N-[2-(dimethylamino)ethyl]-3,5-difluorobenzamide]"
< 1000,< 1000,< 500,"CCOCCCNC(=O)c1cc(F)c(C(=O)c2c[nH]c3c(NC(=O)C4CC4)nccc23)c(F)c1 [Compound No. 64, 4-({7-[(Cyclopropylcarbonyl)amino]-1H-pyrrolo[2,3-c]pyridin-3-yl}carbonyl)-N-(3-ethoxypropyl)-3,5-difluorobenzamide]"
< 50,< 100,< 100,"CNCc1cc(Cl)c(C(=O)c2c[nH]c3c(NC(=O)C4CC4)nccc23)c(Cl)c1 [Compound No. 66, N-(3-{2,6-Dichloro-4-[(methylamino)methyl]benzoyl}-1H-pyrrolo[2,3-c]pyridin-7-yl)cyclopropanecarboxamide]"
< 100,< 500,< 100,"CCNCc1cc(Cl)c(C(=O)c2c[nH]c3c(NC(=O)C4CC4)nccc23)c(Cl)c1 [Compound No. 67, N-(3-{2,6-Dichloro-4-[(ethylamino)methyl]benzoyl}-1H-pyrrolo[2,3-c]pyridin-7-yl)cyclopropanecarboxamide]"
< 500,< 500,< 1000,"O=C(Nc1nccc2c1ccn2C(=O)c1c(Cl)cccc1Cl)C1CC1 [Compound No. 77, N-[1-(2,6-Dichlorobenzoyl)-1H-pyrrolo[3,2-c]pyridin-4-yl]cyclopropanecarboxamide]"
< 500,< 500,< 1000,"N#Cc1cc(Cl)c(C(=O)n2ccc3c(NC(=O)C4CC4)nccc32)c(Cl)c1 [Compound No. 86, N-[1-(2,6-Dichloro-4-cyanobenzoyl)-1H-pyrrolo[3,2-c]pyridin-4-yl]cyclopropanecarboxamide]"
< 1000,< 100,< 500,"Cc1noc(C)c1-c1cc(Cl)c(C(=O)n2ccc3c(NC(=O)C4CC4)nccc32)c(Cl)c1 [Compound No. 87, N-{1-[2,6-Dichloro-4-(3,5-dimethyl-1,2-oxazol-4-yl)benzoyl]-1H-pyrrolo[3,2-c]pyridin-4-yl}cyclopropanecarboxamide]"
< 500,< 50,< 1000,"O=C(Nc1nccc2c1ccn2C(=O)c1c(Cl)cc(-c2cncnc2)cc1Cl)C1CC1 [Compound No. 89, N-{1-[2,6-Dichloro-4-(pyrimidin-5-yl)benzoyl]-1H-pyrrolo[3,2-c]pyridin-4-yl}cyclopropanecarboxamide]"
< 1000,< 1000,< 500,"CCNC(=O)c1cc(Cl)c(C(=O)n2ccc3c(NC(=O)C4CC4)nccc32)c(Cl)c1 [Compound No. 93, 3,5-Dichloro-4-({4-[(cyclopropylcarbonyl)amino]-1H-pyrrolo[3,2-c]pyridin-1-yl}carbonyl)-N-ethylbenzamide]"
< 500,< 500,< 1000,"N#Cc1cc(Cl)c(C(=O)n2ccc3cnccc32)c(Cl)c1 [Compound No. 95, 3,5-Dichloro-4-(1H-pyrrolo[3,2-c]pyridin-1-ylcarbonyl)benzonitrile]"
< 500,< 500,< 1000,"O=C(Nc1nccc2c1ccn2C(=O)c1c(Cl)cc(CO)cc1Cl)C1CC1 [Compound No. 96, N-{1-[2,6-Dichloro-4-(hydroxymethyl)benzoyl]-1H-pyrrolo[3,2-c]pyridin-4-yl}cyclopropanecarboxamide]"
< 500,< 500,< 1000,"CCNC(=O)Nc1cc(Cl)c(C(=O)n2ccc3c(NC(=O)C4CC4)nccc32)c(Cl)c1 [Compound No. 103, N-(1-{2,6-Dichloro-4-[(ethylcarbamoyl)amino]benzoyl}-1H-pyrrolo[3,2-c]pyridin-4-yl)cyclopropanecarboxamide]"
